Laboratory results: patent US10238624B2, “Composition for activating longevity genes, containing kojic acid derivative as active ingredient” (AMOREPACIFIC CORPORATION, priority 2015, dated 2019)

What was measured:
Format in all cases: cell-based
Klotho mRNA [1] = test: Relative expression of Klotho mRNA in keratinocytes (TaqMan RT-PCR); settings: normal human keratinocytes, 10 ppm, 37° C., 24 hours; control = 1.0
Method: (§1) In order to investigate the effect of the kojic acid derivative according to the present disclosure on the activation of longevity genes, the effect of kojyl methylenedioxycinnamate on the activation of Sirt-1, Klotho, XPD and ERCC8 was compared with that of retinol using normal human keratinocytes (NHKs) and normal human fibroblasts (NHFs).
(§2) Specifically, after treating the keratinocytes (NHKs) and fibroblasts (NHFs) with kojyl methylenedioxycinnamate or retinol at 10 ppm and incubating them at 37° C. for 24 hours, the relative expression of Sirt-1, Klotho, XPD and ERCC8 mRNAs was compared by isolating the total RNAs from the cells. The NHFs were purchased from Lonza (Allendale, N.J., USA) and incubated at 37° C. for 24 hours using DMEM after transferring 2×10^5 cells onto a 60-mm dish. After discarding the medium, the cells were transferred to a fresh tissue culture flask. […]
(§3) The total RNAs were isolated using TRIzol™ (Invitrogen, Carlsbad, Calif., USA) according to the manufacturer's instructions. RNA concentration was measured spectrophotometrically and RNA integrity was measured using BioAnalyzer 2100 (Agilent Technologies, Santa Clara, Calif., USA). […] Target gene expression level was measured by quantitative real-time TaqMan RT-PCR (7500Fast, Applied Biosystems, Foster City, Calif., USA). […]

XPD mRNA [2] = test: Relative expression of XPD mRNA in fibroblasts (TaqMan RT-PCR); settings: normal human fibroblasts, 10 ppm, 37° C., 24 hours; control = 1.0
Method: as §1, §2, §3

Sirt-1 mRNA [3] = test: Relative expression of Sirt-1 mRNA in fibroblasts (TaqMan RT-PCR); settings: normal human fibroblasts, 10 ppm, 37° C., 24 hours; control = 1.0
Method: as §1, §2, §3

Klotho mRNA [4] = test: Relative expression of Klotho mRNA in fibroblasts (TaqMan RT-PCR); settings: normal human fibroblasts, 10 ppm, 37° C., 24 hours; control = 1.0
Method: as §1, §2, §3

XPD mRNA [5] = test: Relative expression of XPD mRNA in keratinocytes (TaqMan RT-PCR); settings: normal human keratinocytes, 10 ppm, 37° C., 24 hours; control = 1.0
Method: as §1, §2, §3

Sirt-1 mRNA [6] = test: Relative expression of Sirt-1 mRNA in keratinocytes (TaqMan RT-PCR); settings: normal human keratinocytes, 10 ppm, 37° C., 24 hours; control = 1.0
Method: as §1, §2, §3

ERCC8 mRNA [7] = test: Relative expression of ERCC8 mRNA in fibroblasts (TaqMan RT-PCR); settings: normal human fibroblasts, 10 ppm, 37° C., 24 hours; control = 1.0
Method: as §1, §2, §3

ERCC8 mRNA [8] = test: Relative expression of ERCC8 mRNA in keratinocytes (TaqMan RT-PCR); settings: normal human keratinocytes, 10 ppm, 37° C., 24 hours; control = 1.0
Method: as §1, §2, §3

FoxO3a = FoxO3a activation by nuclear translocation rate in human MNT1 melanoma cells (DAPI/anti-FoxO3a confocal microscopy); settings: 48 hours; for nuclear translocation rate: control 13.2%
Method: In order to investigate the effect of the kojic acid derivative according to the present disclosure on the activation of longevity genes, the effect of the kojyl methylenedioxycinnamate seletinoid G on the activation of the FoxO3a gene was investigated by measuring nuclear translocation rate using human MNT1 melanoma cells purchased from Lonza.
The degree of FoxO3a activation was evaluated based on violet fluorescence resulting from the overlapping of red and blue fluorescence. • Primary antibody: anti-FoxO3a (1:200), 4° C., overnight. • Secondary antibody: Alexa Fluor 555-conjugated goat (1:5000), room temperature, 1 hour.

SMILES	relative expression of Klotho mRNA (Klotho mRNA [1])	relative expression of XPD mRNA (XPD mRNA [2])	relative expression of Sirt-1 mRNA (Sirt-1 mRNA [3])	relative expression of Klotho mRNA (Klotho mRNA [4])	relative expression of XPD mRNA (XPD mRNA [5])	relative expression of Sirt-1 mRNA (Sirt-1 mRNA [6])	relative expression of ERCC8 mRNA (ERCC8 mRNA [7])	relative expression of ERCC8 mRNA (ERCC8 mRNA [8])	activation of the longevity gene FoxO3a (in words) (FoxO3a; 15-450 ppm)	nuclear translocation rate (FoxO3a; 15 ppm) [%]	nuclear translocation rate (FoxO3a; 150 ppm) [%]	nuclear translocation rate (FoxO3a; 450 ppm) [%]
CC1=C(/C=C/C(C)=C/C=C/C(C)=C/CO)C(C)(C)CCC1 [Retinol, retinol, reference compound]	8.9	2.5	2.5	2.2	8.2	4.6	1.3	1.5				
O=C(/C=C/c1ccc2c(c1)OCO2)OCc1cc(=O)c(O)co1 [Kojyl methylenedioxycinnamate, kojyl methylenedioxycinnamate]	9.1	3.5	2.4	2.5	8.5	5.2	1.4	1.9	remarkably activates	35.7	86.3	66.9
